What was measured:
Test in all cases: cells
Conditions in all cases: Homo sapiens
M059J = assay type: functional, cell-based
Description: SANGER: Inhibition of human M059J cell growth in a cell viability assay.

SW-620 = assay type: functional, cell-based
Description: SANGER: Inhibition of human SW620 cell growth in a cell viability assay.

NB12 = assay type: functional, cell-based
Description: SANGER: Inhibition of human NB12 cell growth in a cell viability assay.

Detroit 562 = assay type: functional, cell-based
Description: SANGER: Inhibition of human Detroit562 cell growth in a cell viability assay.

EGI-1 = assay type: functional, cell-based
Description: SANGER: Inhibition of human EGI-1 cell growth in a cell viability assay.

RPMI-7951 = assay type: functional, cell-based
Description: SANGER: Inhibition of human RPMI-7951 cell growth in a cell viability assay.

NCI-H1792 = assay type: functional, cell-based
Description: SANGER: Inhibition of human NCI-H1792 cell growth in a cell viability assay.

SW626 = assay type: functional, cell-based
Description: SANGER: Inhibition of human SW626 cell growth in a cell viability assay.

MDA-MB-157 = assay type: functional, cell-based
Description: SANGER: Inhibition of human MDA-MB-157 cell growth in a cell viability assay.

HuO9 = assay type: functional, cell-based
Description: SANGER: Inhibition of human HuO9 cell growth in a cell viability assay.

HCC1806 = assay type: functional, cell-based
Description: SANGER: Inhibition of human HCC1806 cell growth in a cell viability assay.

COLO-792 = assay type: functional, cell-based
Description: SANGER: Inhibition of human COLO-792 cell growth in a cell viability assay.

OVCAR-3 = assay type: functional, cell-based
Description: SANGER: Inhibition of human OVCAR-3 cell growth in a cell viability assay.

G-401 = assay type: functional, cell-based
Description: SANGER: Inhibition of human G-401 cell growth in a cell viability assay.

SK-HEP1 = assay type: functional, cell-based, SK-HEP-1
Description: SANGER: Inhibition of human SK-HEP-1 cell growth in a cell viability assay.

Kasumi 1 = assay type: functional, cell-based
Description: SANGER: Inhibition of human KASUMI-1 cell growth in a cell viability assay.

ABC-1 = assay type: functional, cell-based
Description: SANGER: Inhibition of human ABC-1 cell growth in a cell viability assay.

WM-115 = assay type: functional, cell-based
Description: SANGER: Inhibition of human WM-115 cell growth in a cell viability assay.

BPH-1 = assay type: functional, cell-based
Description: SANGER: Inhibition of human BPH-1 cell growth in a cell viability assay.

LCLC-103H cell line = assay type: functional, cell-based
Description: SANGER: Inhibition of human LCLC-103H cell growth in a cell viability assay.

CAMA-1 = assay type: functional, cell-based
Description: SANGER: Inhibition of human CAMA-1 cell growth in a cell viability assay.

SW48 = assay type: functional, cell-based
Description: SANGER: Inhibition of human SW48 cell growth in a cell viability assay.

DoTc2-4510 = assay type: functional, cell-based
TCC-SUP = assay type: functional, cell-based
Description: SANGER: Inhibition of human TCCSUP cell growth in a cell viability assay.

A204 = assay type: functional, cell-based
Description: SANGER: Inhibition of human A204 cell growth in a cell viability assay.

BHT-101 = assay type: functional, cell-based
Description: SANGER: Inhibition of human BHT-101 cell growth in a cell viability assay.

RMG-I = assay type: functional, cell-based
Description: SANGER: Inhibition of human RMG-I cell growth in a cell viability assay.

SW1463 = assay type: functional, cell-based
Description: SANGER: Inhibition of human SW1463 cell growth in a cell viability assay.

HuP-T4 = assay type: functional, cell-based
Description: SANGER: Inhibition of human HuP-T4 cell growth in a cell viability assay.

HSC-3 = assay type: functional, cell-based
Description: SANGER: Inhibition of human HSC-3 cell growth in a cell viability assay.

SK-LU-1 = assay type: functional, cell-based
Description: SANGER: Inhibition of human SK-LU-1 cell growth in a cell viability assay.

GP5d = assay type: functional, cell-based
Description: SANGER: Inhibition of human GP5d cell growth in a cell viability assay.

LN-405 = assay type: functional, cell-based
Description: SANGER: Inhibition of human LN-405 cell growth in a cell viability assay.

NCI-H460 = assay type: functional, cell-based
Description: SANGER: Inhibition of human NCI-H460 cell growth in a cell viability assay.

UMC-11 = assay type: functional, cell-based
Description: SANGER: Inhibition of human UMC-11 cell growth in a cell viability assay.

CAL-39 = assay type: functional, cell-based
Description: SANGER: Inhibition of human CAL-39 cell growth in a cell viability assay.

T98G = assay type: functional, cell-based
Description: SANGER: Inhibition of human T98G cell growth in a cell viability assay.

NCI-H520 = assay type: functional, cell-based
Description: SANGER: Inhibition of human NCI-H520 cell growth in a cell viability assay.

BCPAP = assay type: functional, cell-based
Description: SANGER: Inhibition of human BCPAP cell growth in a cell viability assay.

HN = assay type: functional, cell-based
Description: SANGER: Inhibition of human HN cell growth in a cell viability assay.

NCI-H1623 = assay type: functional, cell-based
Description: SANGER: Inhibition of human NCI-H1623 cell growth in a cell viability assay.

J82 = assay type: functional, cell-based
Description: SANGER: Inhibition of human J82 cell growth in a cell viability assay.

M14 = assay type: functional, cell-based
Description: SANGER: Inhibition of human M14 cell growth in a cell viability assay.

GAMG = assay type: functional, cell-based
Description: SANGER: Inhibition of human GAMG cell growth in a cell viability assay.

CHL-1 = assay type: functional, cell-based
Description: SANGER: Inhibition of human CHL-1 cell growth in a cell viability assay.

NB7 = assay type: functional, cell-based
Description: SANGER: Inhibition of human NB7 cell growth in a cell viability assay.

RD = assay type: functional, cell-based
Description: SANGER: Inhibition of human RD cell growth in a cell viability assay.

SF-295 = assay type: functional, cell-based
Description: SANGER: Inhibition of human SF295 cell growth in a cell viability assay.

CAL-72 = assay type: functional, cell-based
Description: SANGER: Inhibition of human CAL-72 cell growth in a cell viability assay.

BFTC-905 = assay type: functional, cell-based
Description: SANGER: Inhibition of human BFTC-905 cell growth in a cell viability assay.

PANC-08-13 = assay type: functional, cell-based
Description: SANGER: Inhibition of human PANC-08-13 cell growth in a cell viability assay.

## COc1cc(Nc2c(C#N)cnc3cc(OCCCN4CCN(C)CC4)c(OC)cc23)c(Cl)cc1Cl [BOSUTINIB]
M059J
  IC50: > 2000 nM
SW-620
  IC50: > 2000 nM
NB12
  IC50: > 2000 nM
Detroit 562
  IC50: > 2000 nM
EGI-1
  IC50: > 2000 nM
RPMI-7951
  IC50: > 2000 nM
NCI-H1792
  IC50: > 2000 nM
SW626
  IC50: > 2000 nM
MDA-MB-157
  IC50: > 2000 nM
HuO9
  IC50: > 2000 nM
HCC1806
  IC50: 352 nM
COLO-792
  IC50: > 2000 nM
OVCAR-3
  IC50: > 2000 nM
G-401
  IC50: > 2000 nM
SK-HEP1
  IC50: > 2000 nM
Kasumi 1
  IC50: 723 nM
ABC-1
  IC50: > 2000 nM
WM-115
  IC50: > 2000 nM
BPH-1
  IC50: 1450 nM
LCLC-103H cell line
  IC50: > 2000 nM
CAMA-1
  IC50: > 2000 nM
SW48
  IC50: > 2000 nM
DoTc2-4510
  IC50: > 2000 nM
TCC-SUP
  IC50: > 2000 nM
A204
  IC50: > 2000 nM
BHT-101
  IC50: 466 nM
RMG-I
  IC50: > 2000 nM
SW1463
  IC50: > 2000 nM
HuP-T4
  IC50: > 2000 nM
HSC-3
  IC50: 1120 nM
SK-LU-1
  IC50: > 2000 nM
GP5d
  IC50: > 2000 nM
LN-405
  IC50: > 2000 nM
NCI-H460
  IC50: > 2000 nM
UMC-11
  IC50: > 2000 nM
CAL-39
  IC50: > 2000 nM
T98G
  IC50: > 2000 nM
NCI-H520
  IC50: > 2000 nM
BCPAP
  IC50: > 2000 nM
HN
  IC50: 1900 nM
NCI-H1623
  IC50: > 2000 nM
J82
  IC50: > 2000 nM
M14
  IC50: > 2000 nM
GAMG
  IC50: > 2000 nM
CHL-1
  IC50: 555 nM
NB7
  IC50: 82.3 nM
RD
  IC50: > 2000 nM
SF-295
  IC50: > 2000 nM
CAL-72
  IC50: > 2000 nM
BFTC-905
  IC50: > 2000 nM
PANC-08-13
  IC50: > 2000 nM

## C[C@]12O[C@H](C[C@]1(O)CO)n1c3ccccc3c3c4c(c5c6ccccc6n2c5c31)CNC4=O [LESTAURTINIB]
M059J
  IC50: 516 nM
SW-620
  IC50: 557 nM
NB12
  IC50: 1310 nM
Detroit 562
  IC50: 236 nM
EGI-1
  IC50: 572 nM
RPMI-7951
  IC50: 318 nM
NCI-H1792
  IC50: 880 nM
SW626
  IC50: 1130 nM
MDA-MB-157
  IC50: 276 nM
HuO9
  IC50: 561 nM
HCC1806
  IC50: 127 nM
COLO-792
  IC50: > 2000 nM
OVCAR-3
  IC50: > 2000 nM
G-401
  IC50: 439 nM
SK-HEP1
  IC50: 31.3 nM
Kasumi 1
  IC50: 19.1 nM
ABC-1
  IC50: > 2000 nM
WM-115
  IC50: > 2000 nM
BPH-1
  IC50: 1300 nM
LCLC-103H cell line
  IC50: > 2000 nM
CAMA-1
  IC50: 1040 nM
SW48
  IC50: 71.6 nM
DoTc2-4510
  IC50: > 2000 nM
TCC-SUP
  IC50: 1850 nM
A204
  IC50: 152 nM
BHT-101
  IC50: 464 nM
RMG-I
  IC50: > 2000 nM
SW1463
  IC50: > 2000 nM
HuP-T4
  IC50: 1330 nM
HSC-3
  IC50: 46.8 nM
SK-LU-1
  IC50: 256 nM
GP5d
  IC50: 177 nM
LN-405
  IC50: > 2000 nM
NCI-H460
  IC50: 1170 nM
UMC-11
  IC50: 1120 nM
CAL-39
  IC50: 481 nM
T98G
  IC50: 327 nM
NCI-H520
  IC50: 203 nM
BCPAP
  IC50: 970 nM
HN
  IC50: 182 nM
NCI-H1623
  IC50: 1650 nM
J82
  IC50: > 2000 nM
M14
  IC50: 50.6 nM
GAMG
  IC50: 382 nM
CHL-1
  IC50: 13.5 nM
NB7
  IC50: 899 nM
RD
  IC50: > 2000 nM
SF-295
  IC50: 428 nM
CAL-72
  IC50: > 2000 nM
BFTC-905
  IC50: 250 nM
PANC-08-13
  IC50: > 2000 nM
